Reference: patent US8623907B2, “Herbicides” (Syngenta Participations, AG, priority 2008, dated 2014)

Columns and labels:
Assay type in all cases: in vivo
[1] = test system: Alopecurus myosuroides (ALOMY); experiment: Test Example 1, pre-emergence herbicidal activity; conditions: Rate 500 g/ha; evaluated 20 days later; 100=total damage to plant, 0=no damage to plant
Method: (§1) Monocotyledonous and dicotyledonous test plants were sown in standard soil in pots. After cultivation for one day (pre-emergence) or after 10 days cultivation (post-emergence) under controlled conditions in a glasshouse, the plants were sprayed with an aqueous spray solution derived from the formulation of the technical active ingredient in 0.6 ml acetone and 45 ml formulation solution containing 10.6% Emulsogen EL (Registry number 61791-12-6), 42.2% N-methylpyrrolidone, 42.2% dipropylene glycol monomethyl ether (Registry number 34590-94-8) and 0.2% X-77 (Registry number 11097-66-8). The test plants were then grown in a greenhouse under optimum conditions until, 15 days later for post-emergence and 20 days for pre-emergence, the test was evaluated (100=total damage to plant; 0=no damage to plant). Alopecurus myosuroides (ALOMY), Avena fatua (AVEFA), Lolium perenne (LOLPE), Setaria faberi (SETFA), Digitaria sanguinalis (DIGSA), Echinochloa crus-galli (ECHCG)

[2] = test system: Avena fatua (AVEFA); experiment: Test Example 1, pre-emergence herbicidal activity; conditions: Rate 500 g/ha; evaluated 20 days later; 100=total damage to plant, 0=no damage to plant
Method: as §1

[3] = test system: Digitaria sanguinalis (DIGSA); experiment: Test Example 1, pre-emergence herbicidal activity; conditions: Rate 500 g/ha; evaluated 20 days later; 100=total damage to plant, 0=no damage to plant
Method: as §1

[4] = test system: Echinochloa crus-galli (ECHCG); experiment: Test Example 1, pre-emergence herbicidal activity; conditions: Rate 500 g/ha; evaluated 20 days later; 100=total damage to plant, 0=no damage to plant
Method: as §1

[5] = test system: Lolium perenne (LOLPE); experiment: Test Example 1, pre-emergence herbicidal activity; conditions: Rate 500 g/ha; evaluated 20 days later; 100=total damage to plant, 0=no damage to plant
Method: as §1

[6] = test system: Setaria faberi (SETFA); experiment: Test Example 1, pre-emergence herbicidal activity; conditions: Rate 500 g/ha; evaluated 20 days later; 100=total damage to plant, 0=no damage to plant
Method: as §1

[7] = test system: Alopecurus myosuroides (ALOMY); experiment: Test Example 1, post-emergence herbicidal activity; conditions: Rate 500 g/ha; evaluated 15 days later; 100=total damage to plant, 0=no damage to plant
Method: as §1

[8] = test system: Avena fatua (AVEFA); experiment: Test Example 1, post-emergence herbicidal activity; conditions: Rate 500 g/ha; evaluated 15 days later; 100=total damage to plant, 0=no damage to plant
Method: as §1

[9] = test system: Digitaria sanguinalis (DIGSA); experiment: Test Example 1, post-emergence herbicidal activity; conditions: Rate 500 g/ha; evaluated 15 days later; 100=total damage to plant, 0=no damage to plant
Method: as §1

[10] = test system: Echinochloa crus-galli (ECHCG); experiment: Test Example 1, post-emergence herbicidal activity; conditions: Rate 500 g/ha; evaluated 15 days later; 100=total damage to plant, 0=no damage to plant
Method: as §1

[11] = test system: Lolium perenne (LOLPE); experiment: Test Example 1, post-emergence herbicidal activity; conditions: Rate 500 g/ha; evaluated 15 days later; 100=total damage to plant, 0=no damage to plant
Method: as §1

[12] = test system: Setaria faberi (SETFA); experiment: Test Example 1, post-emergence herbicidal activity; conditions: Rate 500 g/ha; evaluated 15 days later; 100=total damage to plant, 0=no damage to plant
Method: as §1

[13] = test system: Alopecurus myosuroides (ALOMY); experiment: Test Example B, pre-emergence herbicidal activity; conditions: Rate 250 g/ha; evaluated after 13 days; 100=total damage to plant, 0=no damage to plant
Method: (§2) Seeds of a variety of test species were sown in standard soil in pots. After cultivation for one day (pre-emergence) or after 8 days cultivation (post-emergence) under controlled conditions in a glasshouse (at 24/16° C., day/night; 14 hours light; 65% humidity), the plants were sprayed with an aqueous spray solution derived from the formulation of the technical active ingredient in acetone/water (50:50) solution containing 0.5% Tween 20 (polyoxyethelyene sorbitan monolaurate, CAS RN 9005-64-5). The test plants were then grown in a glasshouse under controlled conditions in a glasshouse (at 24/16° C., day/night; 14 hours light; 65% humidity) and watered twice daily. After 13 days for pre and post-emergence, the test was evaluated (100=total damage to plant; 0=no damage to plant). Alopecurus myosuroides (ALOMY), Avena fatua (AVEFA), Setaria faberi (SETFA), Echinochloa crus-galli (ECHCG), Solanum nigrum (SOLNI) and Amaranthus retroflexus (AMARE)

[14] = test system: Amaranthus retroflexus (AMARE); experiment: Test Example B, pre-emergence herbicidal activity; conditions: Rate 250 g/ha; evaluated after 13 days; 100=total damage to plant, 0=no damage to plant
Method: as §2

[15] = test system: Avena fatua (AVEFA); experiment: Test Example B, pre-emergence herbicidal activity; conditions: Rate 250 g/ha; evaluated after 13 days; 100=total damage to plant, 0=no damage to plant
Method: as §2

[16] = test system: Echinochloa crus-galli (ECHCG); experiment: Test Example B, pre-emergence herbicidal activity; conditions: Rate 250 g/ha; evaluated after 13 days; 100=total damage to plant, 0=no damage to plant
Method: as §2

[17] = test system: Setaria faberi (SETFA); experiment: Test Example B, pre-emergence herbicidal activity; conditions: Rate 250 g/ha; evaluated after 13 days; 100=total damage to plant, 0=no damage to plant
Method: as §2

[18] = test system: Solanum nigrum (SOLNI); experiment: Test Example B, pre-emergence herbicidal activity; conditions: Rate 250 g/ha; evaluated after 13 days; 100=total damage to plant, 0=no damage to plant
Method: as §2

[19] = test system: Alopecurus myosuroides (ALOMY); experiment: Test Example B, post-emergence herbicidal activity; conditions: Rate 250 g/ha; evaluated after 13 days; 100=total damage to plant, 0=no damage to plant
Method: as §2

[20] = test system: Amaranthus retroflexus (AMARE); experiment: Test Example B, post-emergence herbicidal activity; conditions: Rate 250 g/ha; evaluated after 13 days; 100=total damage to plant, 0=no damage to plant
Method: as §2

[21] = test system: Avena fatua (AVEFA); experiment: Test Example B, post-emergence herbicidal activity; conditions: Rate 250 g/ha; evaluated after 13 days; 100=total damage to plant, 0=no damage to plant
Method: as §2

[22] = test system: Echinochloa crus-galli (ECHCG); experiment: Test Example B, post-emergence herbicidal activity; conditions: Rate 250 g/ha; evaluated after 13 days; 100=total damage to plant, 0=no damage to plant
Method: as §2

[23] = test system: Setaria faberi (SETFA); experiment: Test Example B, post-emergence herbicidal activity; conditions: Rate 250 g/ha; evaluated after 13 days; 100=total damage to plant, 0=no damage to plant
Method: as §2

[24] = test system: Solanum nigrum (SOLNI); experiment: Test Example B, post-emergence herbicidal activity; conditions: Rate 250 g/ha; evaluated after 13 days; 100=total damage to plant, 0=no damage to plant
Method: as §2

Compound	Pre-Emergence Activity ALOMY (damage to plant) [1]	Pre-Emergence Activity AVEFA (damage to plant) [2]	Pre-Emergence Activity DIGSA (damage to plant) [3]	Pre-Emergence Activity ECHCG (damage to plant) [4]	Pre-Emergence Activity LOLPE (damage to plant) [5]	Pre-Emergence Activity SETFA (damage to plant) [6]	Post-Emergence Activity ALOMY (damage to plant) [7]	Post-Emergence Activity AVEFA (damage to plant) [8]	Post-Emergence Activity DIGSA (damage to plant) [9]	Post-Emergence Activity ECHCG (damage to plant) [10]	Post-Emergence Activity LOLPE (damage to plant) [11]	Post-Emergence Activity SETFA (damage to plant) [12]	Pre-Emergence Activity ALOMY (damage to plant) [13]	Pre-Emergence Activity AMARE (damage to plant) [14]	Pre-Emergence Activity AVEFA (damage to plant) [15]	Pre-Emergence Activity ECHCG (damage to plant) [16]	Pre-Emergence Activity SETFA (damage to plant) [17]	Pre-Emergence Activity SOLNI (damage to plant) [18]	Post-Emergence Activity ALOMY (damage to plant) [19]	Post-Emergence Activity AMARE (damage to plant) [20]	other results
CCc1ccc(-c2ccc(Cl)cc2Cl)cc1C1([N+](=O)[O-])C(=O)C(C)(C)OC(C)(C)C1=O [Compound A1, 4-(2′,4′-dichloro-4-ethylbiphen-3-yl)-2,2,6,6-tetramethyl-4-nitropyran-3,5-dione]	20	30	70	20	30	0	60	70	100	100	100	100									
CCc1ccc(-c2ccc(Cl)cc2Cl)cc1C1(Cl)C(=O)C(C)(C)OC(C)(C)C1=O [Compound A2, 4-chloro-4-(2′,4′-dichloro-4-ethylbiphen-3-yl)-2,2,6,6-tetramethylpyran-3,5-dione]	0	50	90	90	70	90	60	80	100	100	100	100									
Cc1ccc(-c2ccc(Cl)cc2)cc1C1(Cl)C(=O)COC(C)(C)C1=O (stereo not drawn) [Compound A3, 4-chloro-4-(4′-chloro-4-methylbiphenyl-3-yl)-2,2-dimethylpyran-3,5-dione]													0	0	0	50	0	0	0	0	Post-Emergence Activity AVEFA (damage to plant) [21]: 0; Post-Emergence Activity ECHCG (damage to plant) [22]: 80; Post-Emergence Activity SETFA (damage to plant) [23]: 80; Post-Emergence Activity SOLNI (damage to plant) [24]: 0
Cc1ccc(-c2ccc(Cl)cc2)cc1C1(Cl)C(=O)C(C)(C)OC(C)(C)C1=O [Compound A4, 4-Chloro-4-(4′-chloro-4-methylbiphenyl-3-yl)-2,2,6,6-tetramethyl-pyran-3,5-dione]													30	0	70	100	100	0	100	0	Post-Emergence Activity AVEFA (damage to plant) [21]: 90; Post-Emergence Activity ECHCG (damage to plant) [22]: 100; Post-Emergence Activity SETFA (damage to plant) [23]: 100; Post-Emergence Activity SOLNI (damage to plant) [24]: 0
